By IC50 is commonly meant the concentration that inhibits the measured activity by half.

This assay concerns production of TNFα in U937. Kind of assay: Releasing TNFα from U937 induced by LPS. As to conditions: Homo sapiens, U-937; PMA-differentiated U937, LPS 100 ng/ml, 4 h; read-out: IC50 value that the compound inhibits the production of TNFα. Format: cell-based. An excerpt:
Cytokine regulation in human monocytes has shown that the p38 pathway is the key to the biosynthesis of a plurality of pro-inflammatory cytokines including TNFα, IL-1β and IL-6. Therefore, the inhibition of the p38 MAPK pathway is to reduce inflammatory response by reducing the biosynthesis of the pro-inflammatory cytokines. […] This is a reflection of the effect of the compound in the present invention to facilitate reduction of inflammation, which is useful in the treatment of various diseases, including chronic inflammatory diseases, acute inflammatory diseases, or self-inflammatory diseases. The potency and efficacy of the p38 inhibitor in blocking cytokine production are evaluated using a human U937 cell line.
A 1640 medium with an article number being A10491-01, Gibco; penicillin-streptomycin with an article number being 15140-122, Gibco; fetal bovine serum with an article number being 10099-141C, Gibco; PBS with an article number being 10010-031, Gibco; LPS with an article number being L2880, Sigma; PMA with an article number being P1585, Sigma; dimethyl sulfoxide with an article number being D8418-1L, Sigma; and a TNFα kit with an article number being K151QWD-4, MSD.
A 96-well plate with an article number being 3599, Corning; a plate-vibrating device with an article number being QB-9002, QILINBEIER; a centrifuge with an article number being 5810R, Eppendorf; a carbon dioxide incubator with an article number being 371, Thermo; a counter with an article number being C10281, Gibco; a microscope with an article number being CKX41, OLYMPUS; and an MSD plate reader with an article number being 1201 MESO SECTOR 600, MSD.
U937, ATCC with an article number being CRL-1593.2.
About 2 mg of a drug is weighted; a mother solution is prepared to 10 mM (which is calculated by free alkali) by means of DMSO; and the mother solution is diluted 10-fold to 1 mM, and then is successively diluted 4-fold to 250 μM, 62.5 μM, 15.6 μM, 3.9 μM, 0.97 μM, 0.24 μM, and 0.061 μM. The above series of diluted DMSO drugs is diluted 20-fold as working solutions by using media.
At Day 0, 10000/well inoculation is performed, stimulation is performed for 48 h with 20 ng/ml of PMA, and culture is performed at 37° C., 5% CO2. • At Day 2, 1. Supernatant is removed from differentiated U937, cleaning is performed once with PBS, and 96 μl of the 1640 medium is added. • 2. 2 μl of the compound containing (DMSO with a final concentration being 0.1%), and culture is performed for 30 min at 37° C., 5% CO2. • 3. 2 μl of LPS (a final concentration being 100 ng/ml) is added, cells are stimulated, and culture is performed for 4 h at 37° C., 5% CO2. • 4. Centrifugation is performed, supernatant is taken, and content of TNFα in the supernatant is determined through ELISA.
The content of TNFα corresponding to each well is calculated by using a standard curve in the kit.
The compound IC50 is calculated by using a GraphPad nonlinear fitting formula, and for an experimental result, refer to Table 1.

With `Cc1cnc(-n2cccc(C(C)(C)O)c2=O)cc1-n1c(C)cc(OCc2ncccc2Cl)c(Cl)c1=O` [Embodiment 19, 3″-chloro-4″-((3-chloropyridine-2-yl)methoxy)-3-(2-hydroxypropane-2-yl)-5′,6″-dimethyl-2H,2″H-[1,2′:4′,1″-terpyridine]-2,2″-diketone], the IC50 was 8.11 nM. The result for `Cc1cnc(-n2cccc(C(C)(C)O)c2=O)cc1-n1c(C)cc(OCc2ccc(Cl)cn2)c(Cl)c1=O` [Embodiment 14, 3″-chloro-4″-((5-chloropyridine-2-yl)methoxy)-3-(2-hydroxypropane-2-yl)-5′,6″-dimethyl-2H,2″H-[1,2′:4′,1″-terpyridine]-2,2″-diketone] reads 8.21 nM; that for `Cc1cnc(-n2cccc(C(C)(C)O)c2=O)cc1-n1c(C)cc(OCc2ncc(F)cc2Cl)c(Cl)c1=O` [Embodiment 25, 3″-chloro-4″-((3-chloro-5-fluoropyridine-2-yl)methoxy)-3-(2-hydroxypropane-2-yl)-5′,6″-dimethyl-2H,2″H-[1,2′:4′,1″-terpyridine]-2,2″-diketone], 6.06 nM; that for `Cc1cnc(-n2cccc(C(C)(C)O)c2=O)cc1-n1c(C)cc(OCc2ccc(F)cc2F)c(Cl)c1=O` [Embodiment 4, 3″-chloro-4″-((2,4-difluorobenzyl)oxy)-3-(2-hydroxypropane-2-yl)-5′,6″-dimethyl-2H,2″H-[1,2′:4′,1″-terpyridine]-2,2″-diketone], 2.05 nM.

With `Cc1cnc(-n2cccc(C(C)(C)O)c2=O)cc1-n1c(C)cc(OCc2ncc(C3CC3)cc2F)c(Cl)c1=O` [Embodiment 27, 3″-chloro-4″-((3-fluoro-5-cyclopropylpyridine-2-yl)methoxy)-3-(2-hydroxypropane-2-yl)-5′,6″-dimethyl-2H,2″H-[1,2′:4′,1″-terpyridine]-2,2″-diketone], the IC50 worked out at 16.6 nM. Regarding `Cc1cnc(-n2cccc(C(C)(C)O)c2=O)cc1-n1c(C)cc(OCc2cc(F)ccc2F)c(Cl)c1=O` [Embodiment 18, 3″-chloro-4″-((2,5-difluorobenzyl)oxy)-3-(2-hydroxypropane-2-yl)-5′,6″-dimethyl-2H,2″H-[1,2′:4′,1″-terpyridine]-2,2″-diketone], the concentration for half-maximal inhibition (IC50) is 2.39 nM.

Consider `Cc1cc(C(C)(C)O)c(=O)n(-c2cc(-n3c(C)cc(OCc4ncc(F)cc4F)c(Cl)c3=O)c(C)cn2)c1` [Embodiment 35, 3″-chloro-4″-((3,5-difluoropyridine-2-yl)methoxy)-3-(2-hydroxypropane-2-yl)-5,5′,6″-trimethyl-2H, 2″H-[1,2′:4′,1″-terpyridine]-2,2″-diketone], for which the concentration for half-maximal inhibition (IC50) was determined as 24.3 nM. The value for `Cc1cnc(-n2cccc(C(C)(C)O)c2=O)cc1-n1c(C)cc(OCc2ccc(C#N)cc2F)c(Cl)c1=O` [Embodiment 8, 4-(((3″-chloro-3-(2-hydroxypropane-2-yl)-5′,6″-dimethyl-2,2″-dioxo-2H,2″H-[1,2 2′:4′,1″-terpyridine]-4″-yl)oxy)methyl)-3-fluorobenzonitrile] was 14.4 nM. The value for `Cc1cnc(-n2cccc(C(C)(C)O)c2=O)cc1-n1c(C)cc(OCc2ncc(Cl)cc2F)c(Cl)c1=O` [Embodiment 5, 3″-chloro-4″-((3-fluoro-5-chloropyridine-2-yl)methoxy)-3-(2-hydroxypropane-2-yl)-5′,6″-dimethyl-2H,2″H-[1,2′:4′,1″-terpyridine]-2,2″-diketone] was 4.05 nM; that for `Cc1cnc(-n2cccc(C(C)(C)O)c2=O)cc1-n1c(C)cc(OCc2ccc(Cl)cc2F)c(Cl)c1=O` [Embodiment 9, 3″-chloro-4″-((4-chloro-2-fluorobenzyl)oxy)-3-(2-hydroxypropane-2-yl)-5′,6″-dimethyl-2H,2″H-[1,2′:4′,1″-terpyridine]-2,2″-diketone] was 2.72 nM; that for `Cc1cnc(-n2cccc(C(C)(C)O)c2=O)cc1-n1c(C)cc(OCc2c(F)cccc2C#N)c(Cl)c1=O` [Embodiment 13, 2-(((3″-chloro-3-(2-hydroxypropane-2-yl)-5′,6″-dimethyl-2,2″-dione-2H,2″H-[1,2′:4′,1″-terpyridine]-4″-yl)oxy)methyl)-3-fluorobenzonitrile] was 4.26 nM. The value for `Cc1cnc(-n2cccc(C(C)(C)O)c2=O)cc1-n1c(C)cc(OCc2ccc(F)cn2)c(Cl)c1=O` [Embodiment 21, 3″-chloro-4″-((5-fluoropyridine-2-yl)methoxy)-3-(2-hydroxypropane-2-yl)-5′,6″-dimethyl-2H,2″H-[1,2′:4′,1″-terpyridine]-2,2″-diketone] was 7.11 nM. With `Cc1cnc(-n2cccc(C(C)(C)O)c2=O)cc1-n1c(C)cc(OCc2ccc(F)c(F)c2)c(Cl)c1=O` [Embodiment 23, 3″-chloro-4″-((3,4-difluorobenzyl)oxy)-3-(2-hydroxypropane-2-yl)-5′,6″-dimethyl-2H,2″H-[1,2′:4′,1″-terpyridine]-2,2″-diketone], the IC50 was 5.53 nM. The result for `Cc1cnc(-n2cccc(C(C)O)c2=O)cc1-n1c(C)cc(OCc2ncc(F)cc2F)c(Cl)c1=O` (stereo not drawn) [Embodiment 24, 3″-chloro-4″-((3,5-difluoropyridine-2-yl)methoxy)-3-(1-hydroxyethyl)-5′,6″-dimethyl-2H,2″H-[1,2′:4 1″-terpyridine]-2,2″-diketone] reads 11.2 nM; that for `Cc1cnc(-n2cccc(C(C)(C)O)c2=O)cc1-n1c(C)cc(OCc2c(F)cccc2F)c(Cl)c1=O` [Embodiment 15, 3″-chloro-4″-((2,6-difluorophenyl)methoxy)-3-(2-hydroxypropane-2-yl)-5′,6″-dimethyl-2H,2″H-[1,2′:4′,1″-terpyridine]-2,2″-diketone], 1.6 nM; that for `Cc1cnc(-n2cccc(C(C)(C)O)c2=O)cc1-n1c(C)cc(OCc2cccnc2)c(Cl)c1=O` [Embodiment 30, 3″-chloro-3-(2-hydroxypropane-2-yl)-5′,6″-dimethyl-4″-((pyridin-3-yl)methoxy)-2H,2″H-[1,2′:4′,1″-terpyridine]-2,2″-diketone], 11.9 nM. Turning to `Cc1cnc(-n2cccc(C(C)(C)O)c2=O)cc1-n1c(C)cc(OCc2ncccc2C)c(Cl)c1=O` [Embodiment 12, 3″-chloro-4″-((3-methylpyridin-2-yl)methoxy)-3-(2-hydroxypropane-2-yl)-5′,6″-dimethyl-2H,2″H-[1,2′:4′,1″-terpyridine]-2,2″-diketone], the 50% inhibitory concentration (IC50) came to 5.09 nM. With `Cc1cnc(-n2ccc(C)c(C(C)(C)O)c2=O)cc1-n1c(C)cc(OCc2ncc(F)cc2F)c(Cl)c1=O` [Embodiment 29, 3″-chloro-4″-((3,5-difluoropyridine-2-yl)methoxy)-3-(2-hydroxypropane-2-yl)-4,5′,6″-trimethyl-2H, 2″H-[1,2′:4′,1″-terpyridine]-2,2″-diketone], the 50% inhibitory concentration (IC50) was 15.1 nM.

For the origin of these results see patent US20240166627A1, “Terpyridinedione compound or salt thereof, and preparation method and application thereof” (SHENZHEN SALUBRIS PHARMACEUTICALS CO., LTD., priority 2021, published 2024).
